15 molecules from patent publication US9765040B2, “Therapeutic agent for pain” (Astellas Pharma Inc., priority 2010, dated 2017) can be followed below.

Where two headings read alike, the source gives them in different places.

One test has as its target rat recombinant 11β-HSD1 (Rattus norvegicus (Rat), UniProt P16232). In words: Measurement test for rat 11β-HSD1 inhibitory activity (HTRF cortisol detection). In kind it is biochemical. Conditions: rat recombinant 11β-HSD1, 200 nM cortisone, 40 μM NADPH, pH 6.6, room temperature 1 hour. The procedure: The procedure for measuring the 11β-HSD1-inhibitory activity is as follows. The enzyme reaction and the measurement were carried out using a 384-well plate. The enzyme was prepared in accordance with Journal of Biological Chemistry, 2001, Vol. 276, p. 21343-21350. The reaction was carried out by adding a test compound at various concentrations to a reaction liquid consisting of a 5 mM phosphate buffer (pH 6.6), 200 nM cortisone, 40 μM reduced nicotinamide adenine dinucleotide phosphate (NADPH), and rat recombinant 11β-HSD1, followed by incubating at room temperature for one hour (10 μl/well). The test compound was prepared by dissolving in dimethyl sulfoxide (DMSO) such that a DMSO concentration reached 1% in the reaction liquid. After the enzyme reaction was completed, the enzyme inhibitory action was measured by detecting cortisol using a homogeneous time-resolved fluorescence (HTRF) method. Each of a d2-labeled cortisol containing 400 μM carbenoxolone and a cryptate-labeled cortisol antibody (CIS Bio International Co., Ltd.) was added at 5 μl/well, followed by incubating at room temperature for 2 hours, and then the fluorescence intensity was measured using a fluorophotometer (trade name: ARVO HTS 1420, Perkin Elmer/Wallac), and the enzyme inhibitory activity was calculated from the fluorescence intensity ratio of two wavelengths (665 nm/620 nm).
The measurement results were calculated by averaging the values of 3 wells of the same condition. The ratio when DMSO was added instead of the test compound was taken as 0% and the ratio when 11β-HSD1 was not added was taken as 100%, thereby calculating the 50% inhibition concentration of the test compound as IC50 of the compound inhibitory activity.

The subject of test [1] is spinal nerve ligation model. Kind of test: Test of spinal nerve ligation model (von Frey hair test). In kind it is in vivo, rat. Conditions: read-out: Improvement rate % (dose). On the procedure: The test was carried out in accordance with Pain, 1992, Vol. 50, p. 355-363. The lumbar skin and muscle of a rat (SD, male, 5- to 6-week old) were incised under pentobarbital anesthesia and the transverse processes of lumbar L6 were removed to expose lumbar nerves. The L5 and L6 spinal nerves were ligated with silk thread and then the wound was sutured. The treatment was performed on the left side. However, in a case of a pseudo-operation, the wound was sutured without carrying out the nerve ligation.
Drug efficacy evaluation was carried out by a von Frey hair test 7 to 20 days after the operation. The withdrawal response threshold was calculated in accordance with Journal of Neuroscience Methods, 1994, Vol. 53, p. 55-63. The plantar of hindlimb was stimulated using 8 kinds of von Frey filaments (0.41 to 15.14 g), and 50% withdrawal response thresholds were determined by an up-and-down method. The test was initiated from 2.04 g of the filament, and a case where the withdrawal response of the limb was observed was taken as presence of the response.
On the previous day of the drug efficacy evaluation, the animals showing reduction in the thresholds according to a von Frey hair test were preliminarily selected and grouped such that the difference in the average values of the thresholds between the respective groups was reduced.
The test substance was suspended in a 0.5% methylcellulose solution and administered orally 2 hours before the drug efficacy evaluation. The evaluation of the test substance was carried out by determining the improvement rate of the group administered with the test substance when the threshold of the limb on the treatment side in the pseudo-operation animal group was taken as 100% and the threshold of the limb on the treatment side in an operated animal group administered with a solvent was taken as 0%.

The subject of test [2] is fibromyalgia model induced by repeated administration of reserpine. Kind of test: Test of fibromyalgia model induced by repeated administration of reserpine (muscle pressure pain threshold). The format is in vivo. Conditions: 1 mg/kg oral, maximum among 30, 60 and 120 min after administration, normal rat = 100%, reserpine + solvent = 0%, SD rat. The procedure: The test was carried out in accordance with Pain, 2009, Vol. 146, p. 26-33. Rats (SD, male, 7 weeks old) were used.
The threshold measurement for the muscle pressure pain was carried out according to the method of Schafers et al. (Pain, 2003, Vol. 104, p. 579-588). The pressure stimulus gradually increasing up to 250 g was applied to the gastrocnemius muscle of the right hindlimb of the rat. […] The measurements were carried out in triplicate for each point of time and the average thereof was taken as a measured value.
A solvent (0.5% acetic acid/water) or reserpine at 1 mg/kg was subcutaneously administered on a dorsal subcutaneous part for 3 days once per day. The administration volume of the solvent or reserpine was taken as 1 mL per kg of a body weight of an animal. The muscle pressure pain thresholds of the respective rats were measured at 6 days after the initiation of the administration of the solvent or reserpine, and grouped such that the difference in the average values of the thresholds between the respective groups was reduced.
The drug efficacy evaluation was carried out the next day. The test substance was suspended in a 0.5% methylcellulose solution and the muscle pressure pain thresholds were measured 30, 60, and 120 minutes after oral administration. For the normal rats, drug administration was not carried out, and only the measurement of the muscle pressure pain thresholds was carried out. […] The evaluation of the test substance was carried out by determining the maximal improvement rate of the group administered with the test substance among at time points of 30, 60, and 120 minutes after the administration when the muscle pressure pain threshold of the normal rat is taken as 100% and the muscle pressure pain threshold of the rat treated with reserpine while administered with the solvent is taken as 0%.

Setting [3] is: 0.3 mg/kg oral, 2 hours before evaluation, 50% withdrawal response threshold, pseudo-operation group = 100%, operated solvent group = 0%, SD rat.

Chain of rat recombinant 11β-HSD1 (P16232 whole entry): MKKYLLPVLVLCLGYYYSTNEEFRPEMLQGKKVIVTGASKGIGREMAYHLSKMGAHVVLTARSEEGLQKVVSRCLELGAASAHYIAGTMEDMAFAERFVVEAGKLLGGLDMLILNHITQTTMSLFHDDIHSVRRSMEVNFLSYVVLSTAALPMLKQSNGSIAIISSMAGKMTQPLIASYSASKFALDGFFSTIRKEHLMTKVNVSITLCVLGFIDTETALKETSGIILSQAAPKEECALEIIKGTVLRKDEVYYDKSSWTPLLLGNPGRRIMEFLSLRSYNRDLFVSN

For `Cn1c(-c2ccccc2Cl)nnc1C(C)(C)Oc1c(F)cc(F)cc1F` [Compound 3], the IC50 on rat recombinant 11β-HSD1 was found to be 0.024 µM. Also, the inhibition in vivo at 0.3 mg/kg in test [1] (setting [3]) came out at 62%.
In the case of `CCn1c(-c2ccc(C(N)=O)cc2)nnc1C(C)(C)Oc1c(F)cc(Cl)cc1F` [Compound 8], the “Maximum improvement rate % (dose)” value in test [2] is on record as 41 (1 mg/kg) %. Moreover, the inhibition in vivo at 0.3 mg/kg in test [1] (Rattus norvegicus, po, 2 h) was determined as 87%.
In the same order, the values of `Cn1c(-c2ccc(F)cc2Cl)nnc1C(C)(C)Oc1c(F)cc(F)cc1F` [Compound 2] are 30 (1 mg/kg) % and 88%.
In the case of `CC(C)(Oc1ccc(F)cc1F)c1nnc(-c2ccc(C(N)=O)cc2F)n1C1CC1` [Compound 11], the “Maximum improvement rate % (dose)” value in test [2] is 83 (1 mg/kg) %. The IC50 on rat recombinant 11β-HSD1 came out at 0.064 µM. Further, the inhibition in vivo at 0.3 mg/kg in test [1] (setting [3]) is 82%.
Regarding `Cn1c(-c2ccc(C(N)=O)cc2F)nnc1C(C)(C)Oc1c(F)cc(Cl)cc1F` [Compound 10], in test [2], the “Maximum improvement rate % (dose)” value was 65 (1 mg/kg) %. Also, the inhibition in vivo at 0.3 mg/kg in test [1] (setting [3]) was 81%.
As for `CC(C)n1c(-c2ccc(C(N)=O)cc2)nnc1C(C)(C)Oc1c(F)cc(F)cc1F` [Compound 9], the half-maximal inhibitory concentration (IC50) at rat recombinant 11β-HSD1 was determined as 0.026 µM. The inhibition in vivo at 0.3 mg/kg in test [1] (setting [3]) is 78%.
In the same order, the values of `Cn1c(-c2ccc(C(N)=O)cc2F)nnc1C(C)(C)Oc1c(F)cc(F)cc1F` [Compound 12] are 0.182 µM and 54%.
In the same order, the values of `Cn1c(-c2ccc(F)cc2Br)nnc1C(C)(C)Oc1c(F)cc(F)cc1F` [Compound 1] are 0.035 µM and 71%.
The matching figures for `CC(C)n1c(-c2ccc(C(N)=O)cc2)nnc1C(C)(C)Oc1c(F)cc(Cl)cc1F` [Compound 13]: 0.068 µM and 53%.
On to `CC(C)(Oc1ccc(F)cc1F)c1nnc(-c2ccc(C(N)=O)cc2Cl)n1C1CC1` [Compound 14], for which the half-maximal inhibitory concentration (IC50) at rat recombinant 11β-HSD1 was found to be 0.016 µM. Moreover, the inhibition in vivo at 0.3 mg/kg in test [1] (setting [3]) was found to be 73%.
In the same order, the values of `Cn1c(-c2ccc(F)cc2Cl)nnc1C(C)(C)Oc1c(F)cc(Cl)cc1F` [Compound 5] are 0.263 µM and 65%.
In the case of `Cl.Cn1c(-c2ccccc2Cl)nnc1C(C)(C)Oc1c(F)cc(Cl)cc1F` [Compound 4], the “Maximum improvement rate % (dose)” value in test [2] was 82 (1 mg/kg) %. Moreover, the IC50 at rat recombinant 11β-HSD1 came out at 0.032 µM. The inhibition in vivo at 0.3 mg/kg in test [1] (setting [3]) came out at 85%.
For the molecule `Cn1c(-c2c[nH]nc2C(F)(F)F)nnc1C(C)(C)Oc1c(F)cc(F)cc1F` [Compound 7], the IC50 at rat recombinant 11β-HSD1 amounted to 0.032 µM. For the same molecule, the inhibition in vivo at 0.3 mg/kg in test [1] (setting [3]) stood at 73%.
In the same order, the values of `Cn1c(-c2ccccc2F)nnc1C(C)(C)Oc1c(F)cc(F)cc1F` [Compound 6] are 0.322 µM and 52%.
Consider `CC(C)n1c(-c2ccc(C(N)=O)cc2F)nnc1C(C)(C)Oc1c(F)cc(F)cc1F` [Compound 15], for which, in test [2], the “Maximum improvement rate % (dose)” value is on record as 45 (1 mg/kg) %. Moreover, the inhibition in vivo at 0.3 mg/kg in test [1] (Rattus norvegicus, po, 2 h) amounted to 86%.
